Results: patent publication US8980885B2, “Plant disease controlling composition and method for controlling plant disease” (Sumitomo Chemical Company, Limited, priority 2008, dated 2015)

System: Sclerotinia sclerotiorum
Experiment: Controlling test against Sclerotinia sclerotiorum on cucumber by foliage spraying (Test Example 1)
Format: in vivo
Details: single compound, 12° C., high humidity, 6 days
Experimental: A sand loam was charged into a plastic pot, and cucumber (Sagamihanjiro) was seeded, and grown in a greenhouse for 12 days. A flowable of the compound I, and a flowable comprising any one of the compound II-i, the compound II-ii, the compound III, the compound IV, the compound V and the compound VI were diluted with water separately, and they were tank-mixed to prepare a tank mix solution having each predetermined concentration. The tank mix solution was subjected to foliage spraying so that it was sufficiently adhered to a leaf surface of the cucumber. After spraying, the plant was air-dried, and a PDA medium containing hyphae of Sclerotinia sclerotiorum was placed on the cucumber leaf surface. After seeding, this was placed under 12° C. and the high humidity for 6 days, the controlling effect was investigated. Separately, for comparison, each of the flowables was diluted with water to prepare a water-diluted solution of compounds I to VI having the predetermined concentration, and the similar controlling test was carried out. Further, for calculating a effective value, an onset area rate (ratio of onset area occupied in leaf area examined) in each treatment group was determined. The effective value was calculated by the Equation 1. […] A: Onset area rate of non-treated group B: Onset area rate of treated group In general, an effective value expected in treatment by mixing given two kinds of active ingredient compounds, i.e., an expected effective value is calculated by a Colby calculation equation of the Equation 2. E=X+Y−(X×Y)/100 “Equation 2” X: Effective value obtained by treatment with M ppm of the compound I Y: Effective value obtained by treatment with N ppm of the compound II, III or IV E: Effective value expected in treatment with M ppm of the compound I and N ppm of the compound II, III or IV (expected effective value) In addition, a synergistic effect was shown herein by a value calculated by the following Equation 3.

**Q.** `CO/C=C(/C(=O)OC)c1ccccc1Oc1cc(Oc2ccccc2C#N)ncn1` [Compound V, methyl (E)-2-{2-[6-(2-cyanophenoxy)pyrimidin-4-yloxy]phenyl}-3-methoxyacrylate, reference compound] was tested. Which Actual effective value (0.2 ppm) did it give?
**A.** 10%

**Q.** For `CNC(=O)C(OC)c1ccccc1COc1cc(C)ccc1C` (racemic) [Compound II-ii], which Actual effective value (0.2 ppm) is on record?
**A.** 4%

**Q.** What about the Actual effective value (0.8 ppm) of the same compound?
**A.** 31%

**Q.** Which Actual effective value (0.2 ppm) does the source give for `COC(=O)N(OC)c1ccccc1COc1ccn(-c2ccc(Cl)cc2)n1` [Compound VI, methyl 2-[[1-(4-chlorophenyl)-1H-pyrazol-3-yloxymethyl]phenyl](N-methoxy)carbamate, reference compound] here?
**A.** 29%

**Q.** Which results are given for `CNC(=O)[C@H](OC)c1ccccc1COc1cc(C)ccc1C` [Compound II-i]?
**A.** Actual effective value (0.2 ppm): 14%; Actual effective value (0.8 ppm): 55%

**Q.** How did the Actual effective value (0.2 ppm) turn out when `CO/N=C(/C(=O)OC)c1ccccc1CO/N=C(\C)c1cccc(C(F)(F)F)c1` [Compound IV, methyl (E)-methoxyimino-{(E)-α-[1-(α,α,α-trifluoro-m-tolyl]ethylideneaminooxy)-o-tolyl)acetate, reference compound] was run?
**A.** 28%

**Q.** Which Actual effective value (0.2 ppm) does the source give for `CNC(=O)/C(=N/OC)c1ccccc1COc1cc(C)ccc1C` [Compound III, (αE)-2-[(2,5-dimethylphenoxy)methyl]-α-(methoxyimino)-N-methylbenzeneacetamino, reference compound] here?
**A.** 9%

**Q.** How did the Actual effective value (3.1 ppm) turn out when `C=CCSC(=O)n1c(N)c(-c2ccccc2C)c(=O)n1C(C)C` [Compound I] was run?
**A.** 58%
